Assay results taken from patent publication US20090143285A1, “TARGET PROTEIN AND TARGET GENE FOR DRUG DISCOVERY AND SCREENING METHOD” (REVERSE PROTEOMICS RESEARCH INSTITUTE CO., LTD., priority 2005, published 2009).
Substitutions are numbered along the chain they refer to. “Also recorded” adds a separate entry of the source.

Assays:
FLJ41991-derived protein = biological target: T1, FLJ41991-derived protein (Homo sapiens, UniProt P57764, E293G); assay: SEC/MS interaction analysis, FLJ41991-derived protein (GSDMDC1); format: binding
T1 construct: His-tag (N); made in house; host or cells: Escherichia coli BL21star(DE3)pLysS (pDEST17)
T1 sequence (P57764 265-484 E293G): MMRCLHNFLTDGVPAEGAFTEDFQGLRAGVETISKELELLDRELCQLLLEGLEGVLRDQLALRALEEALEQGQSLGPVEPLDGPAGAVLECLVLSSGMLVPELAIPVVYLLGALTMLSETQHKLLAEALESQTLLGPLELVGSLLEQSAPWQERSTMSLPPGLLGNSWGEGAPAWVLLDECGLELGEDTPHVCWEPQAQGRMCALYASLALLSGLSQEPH
Description: (§1) To analyze the interactions between commonly used drugs and proteins expressed from human full-length cDNA clones while keeping both the proteins and the compounds in non-modified, non-immobilized state, size exclusion chromatography (SEC) and mass analysis were used in combination. The specific procedures are shown below.
(§2) The compound-protein mixture prepared in step 1 was subjected to chromatography using an SEC column, the compound and the protein were separated by SEC, and the compound that interacted with the bound compound or protein contained in the protein fraction was analyzed using a mass analyzer.
(§3) Protein concentrations were measured using BCA Protein Assay (PIERCE), in consideration of the purity calculated by SDS-PAGE.
(§4) Mass analysis was performed using LCQ DECA XP (Thermoelectron) or Q-TOF micro (Micromass), equipped with an ESI probe. The LC pump used was Agilent 1100 (Yokogawa Analytical Systems), and the autosampler used was HTC-PAL (CTC Analytics) equipped with a cooling stacker. The SEC column used was a micro-LC column or a 384-well spin column. […]
(§5) In the 384-well spin column method, Unifilter 100 (Whatman), packed with 10 μL (dry volume) of Bio-Gel P6 (BIO-RAD) and swollen with milliQ water, was used as the SEC column. […] The SEC spin column was mounted on an acetonitrile-aliquoted 384-well U-bottom plate and centrifuged; the SEC spin column filtrate, which is a protein fraction, was recovered in 50% acetonitrile. The protein precipitate produced by the acetonitrile was removed via centrifugation and filtration for deproteinization; the resulting filtrate was concentrated by centrifugal concentration and re-dissolved in 10 μL of 50% methanol to obtain a mass analysis sample. The mobile phase supplied to the mass analyzer was 0.1% formic acid/50% methanol solution in the positive ion mode, and 0.1% ammonia/50% methanol solution in the negative ion mode; these mobile phases were used at a flow rate of 40 μL/min. 2-μL of mass analysis samples were injected using an autosampler at 2-minute intervals; the mass spectral intensity of the compound was measured to retrieve the spectral intensity of the pharmaceutical compound contained in the SEC spin column filtrate (protein fraction eluted from SEC).

[1] = test system: FLJXXXXX-derived proteins; assay: SEC/MS spin column interaction analysis of FLJXXXXX-derived proteins and various compounds (Tables 30-1 to 30-4); format: binding, human; conditions: SEC spin column filtrate, spectral intensity increased with doses of compound and protein
FLJ38897-derived protein = biological target: T2, FLJ38897-derived protein (Homo sapiens, UniProt P57764); assay: SEC/MS interaction analysis, FLJ38897-derived protein (GSDMDC1); format: binding; conditions: spin column method; mixture with protein vs buffer solution alone; data not shown
T2 construct: His-tag (N); made in house; host or cells: Escherichia coli BL21star(DE3)pLysS
T2 sequence (P57764 265-484): T1 sequence (P57764 265-484 E293G) with G29E
Description: as §1, §2, §3, §4, §5

FLJ40298-derived protein = FLJ40298-derived protein (Homo sapiens, UniProt Q8N5S3, P254L/R275T); assay: SEC/MS interaction analysis, FLJ40298-derived protein (hypothetical protein FLJ40298); format: binding
Chain of FLJ40298-derived protein (Q8N5S3 122-287 P254L/R275T): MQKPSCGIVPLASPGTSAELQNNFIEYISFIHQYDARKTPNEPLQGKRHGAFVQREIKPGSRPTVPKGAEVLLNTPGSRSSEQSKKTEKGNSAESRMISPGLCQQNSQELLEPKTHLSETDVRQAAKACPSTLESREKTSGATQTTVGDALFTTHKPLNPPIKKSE
Description: as §1, §2, §3, §4, §5

FLJ12857-derived protein = biological target: T3, FLJ12857-derived protein (Homo sapiens, UniProt O75781, T107A); assay: SEC/MS interaction analysis, FLJ12857-derived protein (Paralemmin; PALM); format: binding
T3 construct: His-tag (N); made in house; host or cells: Escherichia coli BL21star(DE3)pLysS
T3 sequence (O75781 74-343 isoform O75781-2 T107A): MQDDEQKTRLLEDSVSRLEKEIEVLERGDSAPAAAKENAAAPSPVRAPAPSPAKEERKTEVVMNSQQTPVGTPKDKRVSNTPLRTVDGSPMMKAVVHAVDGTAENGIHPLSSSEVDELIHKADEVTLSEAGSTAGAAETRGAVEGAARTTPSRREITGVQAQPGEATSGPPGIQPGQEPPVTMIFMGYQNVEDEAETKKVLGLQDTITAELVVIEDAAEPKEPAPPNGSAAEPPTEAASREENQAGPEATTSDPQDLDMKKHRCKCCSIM
Description: as §1, §2, §3, §4, §5

[2] = compound 12.5 μM, protein 10 μM
[3] = compound 12.5 μM, protein 25 μM
[4] = compound 62.5 μM, protein 10 μM
[5] = compound 62.5 μM, protein 25 μM
[6] = spin column method, doses of both compound and protein varied

COc1ccc(CCN2CCC(Nc3nc4ccccc4n3Cc3ccc(F)cc3)CC2)cc1 [astemizole]
spectrum intensity of the compound in the SEC spin column filtrate (FLJ41991-derived protein; compound 12.5 μM, protein 0 μM): 24899 | spectrum intensity of the compound in the SEC spin column filtrate (FLJ41991-derived protein; compound 12.5 μM, protein 5 μM): 60014 | spectrum intensity of the compound in the SEC spin column filtrate (FLJ41991-derived protein; [2]): 160855 | spectrum intensity of the compound in the SEC spin column filtrate (FLJ41991-derived protein; [3]): 908771 | spectrum intensity of the compound in the SEC spin column filtrate (FLJ41991-derived protein; compound 25 μM, protein 0 μM): 19274 | spectrum intensity of the compound in the SEC spin column filtrate (FLJ41991-derived protein; compound 25 μM, protein 5 μM): 89714 | spectrum intensity of the compound in the SEC spin column filtrate (FLJ41991-derived protein; compound 25 μM, protein 10 μM): 732296 | spectrum intensity of the compound in the SEC spin column filtrate (FLJ41991-derived protein; compound 25 μM, protein 25 μM): 2056843 | spectrum intensity of the compound in the SEC spin column filtrate (FLJ41991-derived protein; compound 62.5 μM, protein 0 μM): 27212 | spectrum intensity of the compound in the SEC spin column filtrate (FLJ41991-derived protein; compound 62.5 μM, protein 5 μM): 361364 | spectrum intensity of the compound in the SEC spin column filtrate (FLJ41991-derived protein; [4]): 2309029 | spectrum intensity of the compound in the SEC spin column filtrate (FLJ41991-derived protein; [5]): 5171023 | interaction judged from spectrum intensity of the compound in the SEC spin column filtrate (protein fraction eluted from SEC) (FLJ41991-derived protein; [6]): concentration-dependent interaction | FLJ No of the derived protein with which the compound was judged to exhibit a concentration-dependent interaction [1]: FLJ38897; also recorded: FLJ41991 | interaction judged from mass spectrum peak intensity of the compound in the spin column filtrate (FLJ38897-derived protein): there was an interaction

CCCCOc1cc(C(=O)OCCN(CC)CC)ccc1N [benoxinate]
FLJ No of the derived protein with which the compound was judged to exhibit a concentration-dependent interaction [1]: FLJ40298 | spectrum intensity of the compound in the SEC spin column filtrate (FLJ40298-derived protein; compound 12.5 μM, protein 0 μM): 202235 | spectrum intensity of the compound in the SEC spin column filtrate (FLJ40298-derived protein; compound 12.5 μM, protein 5 μM): 285949 | spectrum intensity of the compound in the SEC spin column filtrate (FLJ40298-derived protein; [2]): 263958 | spectrum intensity of the compound in the SEC spin column filtrate (FLJ40298-derived protein; [3]): 299357 | spectrum intensity of the compound in the SEC spin column filtrate (FLJ40298-derived protein; compound 25 μM, protein 0 μM): 557220 | spectrum intensity of the compound in the SEC spin column filtrate (FLJ40298-derived protein; compound 25 μM, protein 5 μM): 1519215 | spectrum intensity of the compound in the SEC spin column filtrate (FLJ40298-derived protein; compound 25 μM, protein 10 μM): 552560 | spectrum intensity of the compound in the SEC spin column filtrate (FLJ40298-derived protein; compound 25 μM, protein 25 μM): 583103 | spectrum intensity of the compound in the SEC spin column filtrate (FLJ40298-derived protein; compound 62.5 μM, protein 0 μM): 815144 | spectrum intensity of the compound in the SEC spin column filtrate (FLJ40298-derived protein; compound 62.5 μM, protein 5 μM): 225597 | spectrum intensity of the compound in the SEC spin column filtrate (FLJ40298-derived protein; [4]): 1509221 | spectrum intensity of the compound in the SEC spin column filtrate (FLJ40298-derived protein; [5]): 2027848 | interaction judged from spectrum intensity of the compound in the SEC spin column filtrate (protein fraction eluted from SEC) (FLJ40298-derived protein; [6]): concentration-dependent interaction

CC(=O)O[C@H]1C[C@@H]2CC[C@@H]3[C@H](CC[C@@]4(C)[C@H]3C[C@H]([N+]3(C)CCCCC3)[C@@H]4OC(C)=O)[C@@]2(C)C[C@@H]1[N+]1(C)CCCCC1 [pancuronium bromide]
FLJ No of the derived protein with which the compound was judged to exhibit a concentration-dependent interaction [1]: FLJ12857 | spectrum intensity of the compound in the SEC spin column filtrate (FLJ12857-derived protein; compound 12.5 μM, protein 0 μM): 50699 | spectrum intensity of the compound in the SEC spin column filtrate (FLJ12857-derived protein; compound 12.5 μM, protein 5 μM): 65210 | spectrum intensity of the compound in the SEC spin column filtrate (FLJ12857-derived protein; [2]): 163033 | spectrum intensity of the compound in the SEC spin column filtrate (FLJ12857-derived protein; [3]): 193021 | spectrum intensity of the compound in the SEC spin column filtrate (FLJ12857-derived protein; compound 25 μM, protein 0 μM): 170740 | spectrum intensity of the compound in the SEC spin column filtrate (FLJ12857-derived protein; compound 25 μM, protein 5 μM): 491313 | spectrum intensity of the compound in the SEC spin column filtrate (FLJ12857-derived protein; compound 25 μM, protein 10 μM): 747644 | spectrum intensity of the compound in the SEC spin column filtrate (FLJ12857-derived protein; compound 25 μM, protein 25 μM): 725722 | spectrum intensity of the compound in the SEC spin column filtrate (FLJ12857-derived protein; compound 62.5 μM, protein 0 μM): 1417386 | spectrum intensity of the compound in the SEC spin column filtrate (FLJ12857-derived protein; compound 62.5 μM, protein 5 μM): 1918601 | spectrum intensity of the compound in the SEC spin column filtrate (FLJ12857-derived protein; [4]): 2231237 | spectrum intensity of the compound in the SEC spin column filtrate (FLJ12857-derived protein; [5]): 2511342 | interaction judged from spectrum intensity of the compound in the SEC spin column filtrate (protein fraction eluted from SEC) (FLJ12857-derived protein; [6]): concentration-dependent interaction
